Source: US20040087561A1, “Treatment of sexual dysfunction” (priority 2000, published 2004)

What was measured:
Sprague Dawley male rats = assay: Sexual behaviour of sexually dysfunctional (fluoxetine-treated) male rats; assay type: in vivo, rat; settings: fluoxetine 20 mg/kg i.p. 3 days (vs vehicle+vehicle); day 4 Compound (1) 15 mg/kg or yohimbine 2 mg/kg i.p. 1 h before test (vs fluoxetine+vehicle)
Procedure: Sprague Dawley male rats (Charles River, UK) were kept, 4 rats per cage, in a reversed lighting regime (12:12 hours, lights off at 5.00 h), with free access to food and water. The rats were pre-selected by being presented with a receptive female at […], i.e. every third day (haying 2 clear days between presentations) until completing 6-7 trials of baseline determination. The animals showing consistently vigorous behaviour (ejaculatory latencies <300 s) were chosen for further experiments. Animals were treated for 3 consecutive days with either vehicle (water) or fluoxetine (20 mg/kg, i.p., in a 2 ml/kg dosing volume). On the fourth day, the animals treated with water received vehicle (veh+veh) and the animals treated with fluoxetine received one of the three following treatments: Compound (1) (15 mg/kg, dissolved in 50% 2-hydroxypropyl-β-cyclodextrin in saline), vehicle (cyclodextrine), or yohimbine (2 mg/kg dissolved in water). All treatments were administered i.p. in a 1 ml/kg volume, 1 h before tests.
For all the sexual behaviour tests, the males were placed in an observation arena (50-60 cm diameter), starting 5 hours into the dark cycle and observed under red illumination. Three to 4 minutes after placing the male in the arena, a receptive female (ovariectomised, bearing a 7 mm Silastic implant of oestradiol benzoate) was introduced to the arena and the following parameters noted: Mount Latency: time (in seconds) taken between introduction of female and first mount. A maximum time of 15 minutes (900 seconds) was allowed, and the test terminated if no mounts were recorded within that time (FIG. 16), Ejaculation Latency: time (in seconds) taken from first intromission to ejaculation. A maximum time of 30 minutes (1800 seconds) was given, and the test terminated if ejaculation was not achieved in that time (FIG. 17), Percentage of males achieving ejaculation within 30 minutes was calculated (FIG. 18).
A one-way ANOVA followed by Dunnett's t test was used to compare the fluoxetine+vehicle group and other groups for mount and ejaculatory latencies. Percentage of animals ejaculating was analysed using a Chi-square test followed by Fisher's test. (*: P<0.05, **: P<0.01, ***: P<0.001; n=15-19).

[1] = test system: ovariectomised female Sprague Dawley rats; assay: Female rat sexual proceptivity (time investigating male vs female stimulus); assay type: in vivo
Procedure: Ovariectomised adult female Sprague Dawley rats (180-200 g, from Charles River) were housed in groups of 6 in a reversed lighting system of 12 h light:dark (lights off 7.00-19.00 h). Two weeks after ovariectomy they were used for sexual activity tests. The experiments started at least 5 h into the dark period.
Tests were carried out in a circular arena of 90 cm diameter, surrounded by a 30 cm high wall. Two small cages with wire-mesh front (15×15 cm) are fixed into the wall such that the front of the cage is <> with the wall and the 2 cages are opposite each other. They contained two stimuli animals: an intact sexually experienced male and a receptive female (ovariectomised, primed with 5 μg oestradiol benzoate dissolved in corn oil and injected subcutaneously 48 hours before the test and with 0.5 mg of progesterone four hours before the test). Sexually naive test and control animals were used. Forty eight hours before the tests, both the test and control animals were primed with 5 μg oestradiol benzoate. For animals used as positive controls, progesterone (0.5 mg/0.1 ml) was dissolved in corn oil and administered subcutaneously (s.c.), 4 h before the test. Test and control animals were introduced one at a time for 10 minute periods into the arena. During the 10 min test, the time that the test or positive control animal spent investigating each stimulus animal was noted. The arena was thoroughly cleaned between animals. The position of the male/female stimuli boxes was randomised between animals, in order to avoid place preference. The difference in the percentage of time spent investigating the male minus the female stimuli was calculated, out of the total time spent investigating stimuli animals.
Compound (1) was dissolved in 100% β-cyclodextrin and then diluted with saline to a final solution of 50% 2-hydroxypropyl-β-cyclodextrin. It was administered intraperitoneally (i.p.) at doses of 3 and 10 mg/kg, in a dosing volume of 1 ml/kg, 1 h before tests. Progesterone (0.5 mg/0.1 ml) was dissolved in corn oil and administered subcutaneously (s.c.), 4 h before test, as a positive control.
Ovariectomised adult female Sprague Dawley rats (180-200 g) were housed in groups of 5 in a reversed lighting system of 12 h light:dark (lights off 5.00-17.00 h). They were used for the experiments at least two weeks after ovariectomy. Forty eight hours before tests, the animals were primed with oestradiol benzoate (5 μg/0.1 ml in corn oil, s.c.). On day 1, progesterone (0.5 mg/0.1 ml, in corn oil, s.c.) was administered to one of the groups 4 h before tests, as a positive control. Compound (1) (15 mg/kg, i.p.) was administered in 50% 2-hydroxypropyl-β-cyclodextrin, 1 h before tests. The test lasted 10 minutes and was carried out as described before. The difference in the percentage of time spent investigating the male minus the female stimuli was calculated, out of the total time spent investigating stimuli animals. Animals were submitted to a test on day 1 and on day 15. From day 2 to 14 the Compound (1) group received a daily injection of the compound (15 mg/kg, i.p.), while both the vehicle and the progesterone groups received an injection of vehicle. On day 15 the test took place again, as described for day 1.
Ovariectomised female rats (Sprague Dawley, obtained from Charles River, UK) were stereotaxically implanted (coordinates 0.89 mm behind Bregma, 1.3 mm lateral and 2.5 mm vertical) with stainless steel cannulae (6 mm long, O.D. 0.75 mm), held in place with dental cement. Animals were housed in groups of three and returned to a reversed lighting system of 12 h light:dark (lights off 5.00-17.00 h). Correct placement of the cannulae was assessed post-mortem. Rats were used for tests two weeks after ovariectomy (one week after cannulation). The experiments started at least 5 h into the dark period. […]

COc1ccc(C2(CNC(=O)[C@](C)(Cc3c[nH]c4ccccc34)NC(=O)Nc3ccc([N+](=O)[O-])cc3)CCCCC2)nc1 [Compound (1), (S) 3-(1H-Indol-3-yl)-N-[1-(5-methoxy-pyridin-2-yl)-cyclohexyl-methyl]-2-methyl-2-[3-(4-nitro-phenyl)-ureido]-propionamide]
Ejaculation latency (Sprague Dawley male rats): significantly decreased | Mount latency (Sprague Dawley male rats): significantly decreased | percentage of animals ejaculating (within 30 minutes) (Sprague Dawley male rats): increasing the percentage of animals ejaculating | effect on proceptivity, day 1 ([1]; day 1, Compound (1) 15 mg/kg i.p. 1 h before, progesterone 0.5 mg/0.1 ml s.c. 4 h before, vs vehicle, P<0.01): stimulatory effect on proceptivity | MED, percentage of time spent investigating the male stimulus (proceptivity) ([1]; i.c.v., 3-30 μg/rat, 10 min before test): 10 µg | percentage of time spent investigating the male stimulus (proceptivity) ([1]; i.c.v., dose-dependently 3-30 μg/rat, 10 min before test): increased the percentage of time spent investigating the male stimulus | MED, percentage of time spent investigating the male stimulus (proceptivity) ([1]; i.p., 3 and 10 mg/kg, 1 h before test, 50% 2-hydroxypropyl-β-cyclodextrin): 10 mg/kg | percentage of time spent investigating the male stimulus (proceptivity) ([1]; i.p., dose-dependently 3 mg/kg-10 mg/kg, 1 h before test, vs vehicle): increased the percentage of time spent investigating the male stimulus | body weight or general behaviour ([1]; repeated administration 15 mg/kg i.p. daily for 15 days): no changes in body weight or general behaviour
